Laboratory results reported in patent publication US9150577B2, “Heterocyclic compounds containing an indole core” (Boehringer Ingelheim International GmbH, priority 2009, dated 2015).

Target: Human RSK2 (Homo sapiens (Human), UniProt P51812)
Assay: Human RSK2 assay (Kinase Glo Plus, residual ATP);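 also: recombinant human RSK2 phosphorylating a substrate peptide, 90 min at 28 °C, leftover ATP read by luminescence, RLU scaled between no-kinase background and uninhibited kinase controls, 4-parameter fit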
Type: biochemical
Conditions: not given

Sequence of Human RSK2 (P51812 whole entry): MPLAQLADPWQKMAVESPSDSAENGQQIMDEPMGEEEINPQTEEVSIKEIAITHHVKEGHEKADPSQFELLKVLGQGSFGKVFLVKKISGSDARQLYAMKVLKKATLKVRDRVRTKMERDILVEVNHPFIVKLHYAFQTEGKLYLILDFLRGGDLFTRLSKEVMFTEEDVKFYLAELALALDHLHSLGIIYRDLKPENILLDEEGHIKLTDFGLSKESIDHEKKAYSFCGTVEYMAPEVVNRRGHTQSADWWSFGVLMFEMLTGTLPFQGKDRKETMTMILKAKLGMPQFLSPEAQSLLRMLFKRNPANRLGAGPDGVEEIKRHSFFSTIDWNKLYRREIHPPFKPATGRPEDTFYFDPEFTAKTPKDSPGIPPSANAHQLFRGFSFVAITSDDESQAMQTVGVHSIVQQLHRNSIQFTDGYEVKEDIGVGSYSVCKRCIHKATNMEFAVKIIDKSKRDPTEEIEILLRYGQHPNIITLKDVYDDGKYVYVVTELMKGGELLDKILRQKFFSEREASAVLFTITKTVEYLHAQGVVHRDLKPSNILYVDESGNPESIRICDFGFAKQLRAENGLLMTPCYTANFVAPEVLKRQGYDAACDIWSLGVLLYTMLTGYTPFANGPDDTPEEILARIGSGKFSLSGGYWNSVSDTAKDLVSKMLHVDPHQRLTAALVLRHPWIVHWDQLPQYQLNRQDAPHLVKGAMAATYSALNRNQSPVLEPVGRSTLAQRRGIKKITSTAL

Structure (SMILES) | IC50 [nM]
O=C(Nc1cccc(-c2c[nH]cn2)c1)c1ccc2cc3n(c2c1)CCCNC3=O [Example 226, N-[3-(1H-imidazol-4-yl)phenyl]-1-oxo-2,3,4,5-tetrahydro-1H-[1,4]diazepino[1,2-a]indole-8-carboxamide] | 52
CN(C)CCNC(=O)c1ccccc1NC(=O)c1ccc2cc3n(c2c1)CCCNC3=O [Example 230, N-(2-{[2-(dimethylamino)ethyl]carbamoyl}phenyl)-1-oxo-2,3,4,5-tetrahydro-1H-[1,4]diazepino[1,2-a]indole-8-carboxamide] | 125
Cn1cc(NC(=O)c2ccc3cc4n(c3c2)CCCNC4=O)nc1C(=O)NC1CCCC1 [Example 232, N-[2-(cyclopentylcarbamoyl)-1-methyl-1H-imidazol-4-yl]-1-oxo-2,3,4,5-tetrahydro-1H-[1,4]diazepino[1,2-a]indole-8-carboxamide] | 9
Cn1cc(NC(=O)c2ccc3cc4n(c3c2)C(C)(C)CNC4=O)nc1C(=O)NC1CCCC1 [Example 233, N-[2-(cyclopentylcarbamoyl)-1-methyl-1H-imidazol-4-yl]-4,4-dimethyl-1-oxo-1,2,3,4-tetrahydropyrazino[1,2-a]indole-7-carboxamide] | 3.7
CN(C)CCCn1c(NC(=O)c2ccc3cc4n(c3c2)CC2(CCNCC2)CNC4=O)nc2ccccc21 [Example 236, N-{1-[3-(dimethylamino)propyl]-1H-benzimidazol-2-yl}-1-oxo-2,3-dihydro-1H-spiro[1,4-diazepino[1,2-a]indole-4,4′-piperidine]-8-carboxamide] | 540
O=C(Nc1cnn(Cc2ccccc2)c1)c1ccc2cc3n(c2c1)CC1(CCNCC1)CNC3=O [Example 238, N-(1-benzyl-1H-pyrazol-4-yl)-1-oxo-2,3-dihydro-1H-spiro[1,4-diazepino[1,2-a]indole-4,4′-piperidine]-8-carboxamide] | 350
CS(=O)(=O)c1ccc2c(c1)nc(NC(=O)c1ccc3cc4n(c3c1)CC1(CCNCC1)CNC4=O)n2CC(F)(F)F [Example 239, N-[5-(methylsulfonyl)-1-(2,2,2-trifluoroethyl)-1H-benzimidazol-2-yl]-1-oxo-2,3-dihydro-1H-spiro[1,4-diazepino[1,2-a]indole-4,4′-piperidine]-8-carboxamide] | 51

Other lines, results leading:

IC50 [nM] | Structure (SMILES)
41 | O=C(Nc1cccc(-c2cc[nH]n2)c1)c1ccc2cc3n(c2c1)CCCNC3=O [Example 227, 1-oxo-N-[3-(1H-pyrazol-3-yl)phenyl]-2,3,4,5-tetrahydro-1H-[1,4]diazepino[1,2-a]indole-8-carboxamide]
4100 | Cc1ccc(-c2cccc(NC(=O)c3ccc4cc5n(c4c3)CCCNC5=O)c2)s1 [Example 228, N-[3-(5-methylthiophen-2-yl)phenyl]-1-oxo-2,3,4,5-tetrahydro-1H-[1,4]diazepino[1,2-a]indole-8-carboxamide]
154 | CNC(=O)c1ccccc1NC(=O)c1ccc2cc3n(c2c1)CCCNC3=O [Example 229, N-[2-(methylcarbamoyl)phenyl]-1-oxo-2,3,4,5-tetrahydro-1H-[1,4]diazepino[1,2-a]indole-8-carboxamide]
6 | Cn1cc(NC(=O)c2ccc3cc4n(c3c2)C(C)(C)CNC4=O)nc1C(=O)NC(C)(C)C [Example 231, N-[2-(tert-butylcarbamoyl)-1-methyl-1H-imidazol-4-yl]-4,4-dimethyl-1-oxo-1,2,3,4-tetrahydropyrazino[1,2-a]indole-7-carboxamide]
2.1 | CC1CCNC(=O)c2cc3ccc(C(=O)Nc4cn(C)c(C(=O)NC5CCCC5)n4)cc3n21 (centres unmarked) [Example 234, N-[2-(cyclopentylcarbamoyl)-1-methyl-1H-imidazol-4-yl]-5-methyl-1-oxo-2,3,4,5-tetrahydro-1H-[1,4]diazepino[1,2-a]indole-8-carboxamide]
10.9 | CCCNC(=O)c1nc(NC(=O)c2ccc3cc4n(c3c2)C(C)CNC4=O)sc1C(C)C (centres unmarked) [Example 235, 4-methyl-1-oxo-N-[5-(propan-2-yl)-4-(propylcarbamoyl)-1,3-thiazol-2-yl]-1,2,3,4-tetrahydropyrazino[1,2-a]indole-7-carboxamide]
6300 | Cc1cc(NC(=O)c2ccc3cc4n(c3c2)CC2(CCNCC2)CNC4=O)no1 [Example 237, N-(5-methyl-1,2-oxazol-3-yl)-1-oxo-2,3-dihydro-1H-spiro[1,4-diazepino[1,2-a]indole-4,4′-piperidine]-8-carboxamide]

Tested on: NHE1
Assay: not given
Conditions: basal; cited from earlier work

Structure (SMILES) | basal NHE1 activity
Cc1ccc(-c2c(C(=O)CF)n(CCCO)c3ncnc(N)c23)cc1 [fmk] | without affecting basal activity

Same assay, conditions: cited from earlier work

Structure (SMILES) | phosphorylation of NHE1
Cc1ccc(-c2c(C(=O)CF)n(CCCO)c3ncnc(N)c23)cc1 [fmk] | inhibit

Same assay, conditions: phenylephrine-induced; cited from earlier work

Structure (SMILES) | phenylephrine-induced enhanced NHE1 activity
Cc1ccc(-c2c(C(=O)CF)n(CCCO)c3ncnc(N)c23)cc1 [fmk] | inhibit
